Source: patent US4994448A, “Condensed quinolinium and isoquinolinium derivatives” (Egis Gyogyszergyar, priority 1987, dated 1991)
Where two headings read alike, the source gives them in different places.

What was measured:
Tetrabenazine ptosis = experiment: Tetrabenazine antagonism on mice (ptosis); type: in vivo; conditions: for ED50: Mus musculus, oral, 30 min before Tetrabenazine 50 mg./kg. i.p.
Protocol: The test is carried out by the method of Hoffmeister et al. adapted to mice. For each does groups of 10 animals are used. The mice of the test groups are treated orally with the test compound while the controld animals receive the corresponding vehicle p.o. After 30 minutes a 50 mg./kg. i.p. dose of Tetrabenazine is administered. The animals with closed eye-lids are counted after 30, 60, 90 and 120 minutes, respectively, in each group. The average ptosis is calculated on the basis of all measurements in each group and expressed as the percentage of the deviation (ptosis) from the control group.

Reserpin ptosis = Reserpin ptosis antagonism on mice; type: in vivo; conditions: for ED50: Mus musculus, sc, 1 h, compound given 60 min after reserpine 6 mg./kg. s.c.
Protocol: The average ptosis is calculated on the basis of all measurements in each group and expressed as the percentage of the deviation (ptosis) from the control group. Groups consisting of 10 mice are used for each does. The animals are treated with a 6 mg./kg. s.c. dose of reserpine, the test compound is administered after 60 minutes. The control animals receive a vehicle. The animals with closed eye-lids are counted in each group after 60 and 120 minutes. The evaluation is carried out as disclosed in the ptosis test No. 3.

Acute toxicity on mice = conditions: mouse, in vivo, po
Protocol: White mice belonging to the CFLP strain (body weight 18-22 g; both male and female) are used, 10 animals for each dose. The test compound is administered orally in a volumen of 20 ml/kg. After treatment the animals are observed for a period of 7 days. The animals are kept in a plastic cage, at room temperature. The animals get tap water and standard mouse fodder ad libitum.

writhing (acetic acid) = experiment: Analgesic effect, acetic acid writhing test on mice; type: in vivo; conditions: for ED50: Mus musculus, oral, 60 min pre-treatment, 0.75% acetic acid i.p.; for Therapeutical index (writhing test): mouse, in vivo, po
Protocol: Method: acetic acid "writhing effect" on mice
To mice weighing 20-25 g. a 0.75% acetic acid solution is administered intraperitoneally in a volume of 20 ml./kg. According to the method of Neubold the characteristic writhing reactions are counted for each animal between the 5th and 10th minute and the total writhing number obtained for this 5 minutes' period is expressed as the percentage of the control group. The test compound is administered orally, the test is carried out by using a pre-treatment period of 60 minutes and 10 animals are used for each dose.

Hexobarbital narcosis = Hexobarbital narcosis on mice; type: in vivo; conditions: po; for ED50: Mus musculus, read-out: Hexobarbital narcosis ED50; for Therapeutical index (Hexobarbital narcosis): mouse, in vivo
Protocol: Groups consisting of 6 mice are used for each dose. The animals are treated orally with the test compound (the control group receives a vehicle), whereby sleeping is induced 1 hour later by administering a 40 mg./kg. i.v. dose of Hexobarbital both to the test and control groups.
Animals which have a sleeping time more than 2.5 times longer than that of the control group are considered to show a positive reaction. ED50 values are calculated from the thus-transofrmed data.

[1] = test system: gastrointestinal peristalsis; experiment: Antiperistaltic effect on mice (gastrointestinal peristalsis, carbon suspension, method of Stickney et al.); type: in vivo, mice (white, male and female); conditions: for ED50: Mus musculus, read-out: Antiperistaltic effect ED50; for Therapeutical index (antiperistaltic effect): mouse, in vivo
Protocol: The […] effect is tested according to the method of […] et al. on white male and female mice weighing 20-25 g. […] The groups consist of 10 mice for each dose. The animals of the control group are treated at the same time under identical conditions with a vehicle. Twenty minutes after the administration of the carbon suspension the mice are sacrificed. The total length of the intestines and that of the intestines filled with carbon is measured.

[2] = 7 days observation, Litchfield-Wilcoxon
[3] = 60 min before 10% carbon suspension

For `CN(C)CCC=C1c2ccccc2CCc2ccccc21` [Amitriptylin, reference compound], the ED50 (Tetrabenazine ptosis) was 12 mg/kg, the “Therapeutical index TI (Tetrabenazine ptosis antagonism)” value (Tetrabenazine ptosis) was 18.7 and the ED50 (Reserpin ptosis) was 65 mg/kg. For the same compound, the “Therapeutical index TI (Reserpin ptosis antagonism)” value (Reserpin ptosis) was 3.5.
In the case of `CC1=N[n+]2ccc3ccccc3c2NC1(C)O` (stereo not shown) [Example 1, 2,3-Dimethyl-2-hydroxy-1,2-dihydro-as-triazino[3,2-a]isoquinolinium ethanesulfonate], the LD50 at 168 h (Acute toxicity on mice) is reported as 440 mg/kg, the ED50 (writhing (acetic acid)) is reported as 60 mg/kg and the “Therapeutical index (writhing test)” value (writhing (acetic acid)) is reported as 7.3.
`c1ccc2c(c1)cc[n+]1ncc(N3CCOCC3)nc21` [Example 2, 2-Morpholino-as-triazino[3,2-a]isoquinolinium ethanesulfonate] gave an LD50 at 168 h (Acute toxicity on mice; [2]) of 450 mg/kg.
In the case of `OCCNc1cn[n+]2ccc3ccccc3c2n1` [Example 3, 2-(2-Hydroxyethylamino)-as-triazino[3,2-a]isoquinolinium ethanesulfonate], the LD50 at 168 h (Acute toxicity on mice) is reported as 500 mg/kg, the ED50 (Tetrabenazine ptosis) is reported as 50 mg/kg and the “Therapeutical index TI (Tetrabenazine ptosis antagonism)” value (Tetrabenazine ptosis) is reported as 10.0.
For `Cc1n[n+]2ccc3ccccc3c2nc1NCCCN(C)C` [Example 5, 2-(3-Dimethylaminopropylamino)-3-methyl-as-triazino[3,2-a]isoquinolinium ethanesulfonate], the LD50 at 168 h (Acute toxicity on mice; [2]) was 2000 mg/kg.
In the case of `CN(C)CCCNc1nc2c3ccccc3cc[n+]2nc1-c1ccccc1` [Example 6, 2-(3-Dimethylaminopropylamino)-3-phenyl-as-triazino[3,2-a]isoquinolinium ethanesulfonate], the LD50 at 168 h (Acute toxicity on mice) is reported as 850 mg/kg, the ED50 (Hexobarbital narcosis) is reported as 35 mg/kg and the “Therapeutical index (Hexobarbital narcosis)” value (Hexobarbital narcosis) is reported as 24.3. The ED50 (writhing (acetic acid)) was 120 mg/kg and the “Therapeutical index (writhing test)” value (writhing (acetic acid)) was 7.1.
With `c1ccc(CNc2nc3c4ccccc4cc[n+]3nc2-c2ccccc2)cc1` [Example 8, 2-Benzylamino-3-phenyl-as-triazino[3,2-a]isoquinolinium ethanesulfonate] the LD50 at 168 h (Acute toxicity on mice) was 340 mg/kg, the ED50 (Reserpin ptosis) was 31 mg/kg and the “Therapeutical index TI (Reserpin ptosis antagonism)” value (Reserpin ptosis) was 11.0.
For `Cc1n[n+]2ccc3ccccc3c2[nH]c1=O` [Example 9, 3-Methyl-2(1H)-oxo-as-triazino[3,2-a]isoquinolinium-5-ium-ethanesulfonate], the LD50 at 168 h (Acute toxicity on mice) was 900 mg/kg, the ED50 (Hexobarbital narcosis) was 56 mg/kg and the “Therapeutical index (Hexobarbital narcosis)” value (Hexobarbital narcosis) was 16.1. For the same compound, the ED50 (writhing (acetic acid)) was 107 mg/kg and the “Therapeutical index (writhing test)” value (writhing (acetic acid)) was 8.4.
With `O=c1nc2c3ccccc3ccn2nc1-c1ccccc1` [Example 11, 3-Phenyl-as-triazino[3,2-a]isoquinoline-2(5H)-one] the LD50 at 168 h (Acute toxicity on mice) was 2000 mg/kg, the ED50 (Reserpin ptosis) was 33 mg/kg and the “Therapeutical index TI (Reserpin ptosis antagonism)” value (Reserpin ptosis) was 60.6. The ED50 [1, 3] was roughly 220 mg/kg and the “Therapeutical index (antiperistaltic effect)” value [1] was 9.1.
Work on `OC1C=N[n+]2ccc3ccccc3c2N1` (stereo not shown) [Example 16, 2-Hydroxy-1,2-dihydro-as-triazino[3,2-a]isoquinolinium ethanesulfonate] yielded an LD50 at 168 h (Acute toxicity on mice; [2]) of 650 mg/kg.
With `Cc1n[n+]2c3ccccc3ccc2n(C)c1=O` [Example 17, 2,4-Dimethyl-3(4H)-oxo-as-triazino[3,2-a]isoquinoline-11-ium ethanesulfonate] the LD50 at 168 h (Acute toxicity on mice) was 1000 mg/kg, the ED50 (Reserpin ptosis) was 40 mg/kg and the “Therapeutical index TI (Reserpin ptosis antagonism)” value (Reserpin ptosis) was 25.0.
With `Cn1c(=O)c(-c2ccccc2)n[n+]2c3ccccc3ccc12` [Example 18, 2-Phenyl-4-methyl-3(4H)-oxo-as-triazino[3,2-a]quinoline-11-ium ethanesulfonate] the LD50 at 168 h (Acute toxicity on mice) was 2000 mg/kg, the ED50 (Reserpin ptosis) was 40 mg/kg and the “Therapeutical index TI (Reserpin ptosis antagonism)” value (Reserpin ptosis) was 50.0.
`Cc1n[n+]2c(ccc3ccccc32)[nH]c1=O` [Example 21, 2-Methyl-3(4H)-oxo-as-triazino[3,2-a]quinoline-11-ium ethanesulfonate] showed an LD50 at 168 h (Acute toxicity on mice; [2]) of 700 mg/kg.
`Cc1n[n+]2c(ccc3ccccc32)nc1NCCO` [Example 24, 2-Methyl-3(2-hydroxyethylamino)as-triazino[3,2-a]quinolinium ethanesulfonate] showed an LD50 at 168 h (Acute toxicity on mice; [2]) of 130 mg/kg.
`OCCNc1nc2ccc3ccccc3[n+]2nc1-c1ccccc1` [Example 25, 3-(2-Hydroxyethylamino)-2-phenyl-as-triazino[3,2-a]quinolinium ethanesulfonate] gave an LD50 at 168 h (Acute toxicity on mice; [2]) of 500 mg/kg.
For `O=c1cn[n+]2c(ccc3ccccc32)[nH]1` [Example 26, 3(4H)-Oxo-as-triazino[3,2-a]quinoline-11ium ethanesulfonate], the LD50 at 168 h (Acute toxicity on mice; [2]) was 450 mg/kg.
With `O=c1[nH]c2ccc3ccccc3[n+]2nc1-c1ccccc1` [Example 27, 2-Phenyl-3(4H)-oxo-as-triazino[3,2-a]quinoline-11ium ethanesulfonate] the ED50 (writhing (acetic acid)) was 23.8 mg/kg and the “Therapeutical index (writhing test)” value (writhing (acetic acid)) was 42.0.
With `Cc1n[n+]2ccc3ccccc3c2nc1N1CCOCC1` [Example 34, 2-Morpholino-3-methyl-as-triazino[3,2-a]isoquinolinium ethanesulfonate] the LD50 at 168 h (Acute toxicity on mice; [2]) was 1200 mg/kg.
In the case of `Cc1n[n+]2ccc3ccccc3c2nc1NCCO` [Example 36, 2-(2-Hydroxyethylamino)-3-methyl-as-triazino[3,2-a]isoquinolinium ethanesulfonate], the LD50 at 168 h (Acute toxicity on mice) is reported as 1400 mg/kg, the ED50 (Tetrabenazine ptosis) is reported as 20 mg/kg and the “Therapeutical index TI (Tetrabenazine ptosis antagonism)” value (Tetrabenazine ptosis) is reported as 70.0.
`OCCNc1nc2c3ccccc3cc[n+]2nc1-c1ccccc1` [Example 37, 2-(2-Hydroxyethylamino)-3-phenyl-as-triazino[3,2-a]isoquinolinium ethanesulfonate] showed an LD50 at 168 h (Acute toxicity on mice; [2]) of 750 mg/kg.
For `Cc1n[n+]2ccc3ccccc3c2nc1N` [Example 38, 2-Amino-3-methyl-as-triazino[3,2-a]isoquinolinium ethanesulfonate], the LD50 at 168 h (Acute toxicity on mice) was 380 mg/kg, the ED50 (Tetrabenazine ptosis) was 9.2 mg/kg and the “Therapeutical index TI (Tetrabenazine ptosis antagonism)” value (Tetrabenazine ptosis) was 41.3. For the same compound, the ED50 (Hexobarbital narcosis) was 17 mg/kg, the “Therapeutical index (Hexobarbital narcosis)” value (Hexobarbital narcosis) was 22.4 and the ED50 (writhing (acetic acid)) was 65 mg/kg. For the same compound, the “Therapeutical index (writhing test)” value (writhing (acetic acid)) was 5.8.
`Nc1nc2c3ccccc3cc[n+]2nc1-c1ccccc1` [Example 39, 2-Amino-3-phenyl-as-triazino[3,2-a]isoquinolinium ethanesulfonate] gave an LD50 at 168 h (Acute toxicity on mice; [2]) of 500 mg/kg.
In the case of `Cc1n[n+]2ccc3ccccc3c2nc1NCc1ccccc1` [Example 40, 2-Benzylamino-3-methyl-as-triazino[3,2-a]isoquinolinium ethanesulfonate], the LD50 at 168 h (Acute toxicity on mice) is reported as 90 mg/kg, the ED50 [1, 3] is reported as 6.5 mg/kg and the “Therapeutical index (antiperistaltic effect)” value [1] is reported as 13.85.
For `CCCC(C)(COC(N)=O)COC(N)=O` [Meprobamate, reference compound], the ED50 (Hexobarbital narcosis) was 260 mg/kg and the “Therapeutical index (Hexobarbital narcosis)” value (Hexobarbital narcosis) was 4.2.
In the case of `COc1ccc(Cc2nccc3cc(OC)c(OC)cc23)cc1OC` [Papaverin, reference compound], the ED50 [1] is reported as greater than 280 mg/kg and the “inhibition (antiperistaltic effect)” value ([1]; printed beside ED50 above 280 mg./kg.) is reported as 36.1%.
`CC(=O)Nc1ccc(O)cc1` [Paracetamol, reference compound] gave an ED50 (writhing (acetic acid)) of 180 mg/kg.
